# From US20220395472A1 (Dermavant Sciences GmbH, priority 2021, published 2022)
# Tested on: adults with plaque psoriasis
# Experiment: Long-term open-label extension study (PSOARING 3): Physician Global Assessment (PGA), treatment episodes, treatment success, remittive effect
# Type: in vivo, human
# Experimental: This extension study consisted of up to 40 weeks of treatment and a 4 week, safety follow up period.
# At the completion of the Week 12 visit of the DB, pivotal Phase 3 study, eligibility of the subjects opting to enroll in this extension study was confirmed. Study visits during the treatment period for all subjects occurred every 4 weeks (±3 days). A phone call was performed at Week 2 (Day 15). Unscheduled visits may have occurred, as needed. Subjects who withdrew from this study before Week 40 returned to the study center for an Early Termination visit. The total duration of this extension study participation was 44 weeks. Subjects in this study were treated as follows based on their PGA score from the Week 12 visit in the DB, pivotal Phase 3 study (Study DMVT 505 3001 or Study DMVT 505 3002).
# The PGA was used to assess the primary efficacy endpoint in this study. The PGA is a clinical tool for assessing the current state/severity of a subject's psoriasis at a given time point. It is a static, 5 point, morphological assessment of overall disease severity, as determined by the Investigator, using the clinical characteristics of erythema, scaling, and plaque thickness/elevation as guidelines; higher PGA scores represent more severe disease (0=clear, 1=almost clear, 2=mild, 3=moderate, and 4=severe). The BSA affected was not considered in scoring of the PGA. Variations of the PGA are frequently used in clinical studies because it is a simple assessment, similar to those used in clinical practice. The PGA was performed first, prior to the % BSA, PASI, and LTS assessments.
# Time to event parameters, such as the time from treatment success to subsequent worsening (PGA≥2) or duration of treatment episode, were summarized by the Kaplan Meier product limit method using OC.
# [1] = Week 40, LOCF, Tapinarof (Pivotal) group
# [2] = Week 40, OC, Vehicle (Pivotal) group
# [3] = Week 40 LOCF, Tapinarof (Pivotal)
# [4] = Week 40 LOCF, Vehicle (Pivotal)
# [5] = Week 40 OC, Tapinarof (Pivotal)
structure (smiles),measurement,setting,value
"CC(C)c1c(O)cc(/C=C/c2ccccc2)cc1O [Tapinarof, 3,5-Dihydroxy-4-isopropyl-trans-stilbene]",PGA Change from Baseline: Improved by 4,"Week 16 OC, Vehicle (Pivotal)",1 (0.5) n (%)
same,PGA Change from Baseline: No Change,"Week 16 OC, Vehicle (Pivotal)",59 (28.2) n (%)
same,PGA Change from Baseline: Worsened by 1,"Week 16 OC, Vehicle (Pivotal)",6 (2.9) n (%)
same,PGA Change from Baseline: Worsened by 2,"Week 16 OC, Vehicle (Pivotal)",2 (1.0) n (%)
same,PGA Change from Baseline: Worsened by 3,"Week 16 OC, Vehicle (Pivotal)",0 (0.0) n (%)
same,PGA Change from Baseline: Worsened by 4,"Week 16 OC, Vehicle (Pivotal)",0 (0.0) n (%)
same,Subjects with PGA=0,[1],15.4%
same,Subjects with PGA=1,[1],30.0%
same,Subjects with PGA=1,"Week 40, LOCF, Vehicle (Pivotal) group",27.4%
same,Subjects with PGA=1,"Week 40, OC, Tapinarof (Pivotal) group",30.1%
same,Subjects with PGA=0,[2],23.9%
same,Subjects with PGA=1,[2],31.9%
same,PGA 0 - Clear,"Week 40 LOCF, Overall",118 (15.8) n (%)
same,PGA 1 - Almost Clear,"Week 40 LOCF, Overall",217 (29.1) n (%)
same,PGA 2 - Mild,"Week 40 LOCF, Overall",253 (34.0) n (%)
same,PGA 3 - Moderate,"Week 40 LOCF, Overall",146 (19.6) n (%)
same,PGA 4 - Severe,"Week 40 LOCF, Overall",11 (1.5) n (%)
same,PGA Change from Baseline: Improved by 1,"Week 40 LOCF, Overall",194 (26.1) n (%)
same,PGA Change from Baseline: Improved by 2,"Week 40 LOCF, Overall",88 (11.9) n (%)
same,PGA Change from Baseline: Improved by 3,"Week 40 LOCF, Overall",27 (3.6) n (%)
same,PGA Change from Baseline: Improved by 4,"Week 40 LOCF, Overall",2 (0.3) n (%)
same,PGA Change from Baseline: No Change,"Week 40 LOCF, Overall",282 (38.0) n (%)
same,PGA Change from Baseline: Worsened by 2,"Week 40 LOCF, Overall",37 (5.0) n (%)
same,PGA Change from Baseline: Worsened by 3,"Week 40 LOCF, Overall",4 (0.5) n (%)
same,PGA Change from Baseline: Worsened by 4,"Week 40 LOCF, Overall",0 (0.0) n (%)
same,PGA 0 - Clear,[3],76 (15.4) n (%)
same,PGA 1 - Almost Clear,[3],148 (30.0) n (%)
same,PGA 2 - Mild,[3],171 (34.7) n (%)
same,PGA 3 - Moderate,[3],91 (18.5) n (%)
same,PGA 4 - Severe,[3],7 (1.4) n (%)
same,PGA Change from Baseline: Improved by 1,[3],110 (22.4) n (%)
same,PGA Change from Baseline: Improved by 2,[3],31 (6.3) n (%)
same,PGA Change from Baseline: Improved by 3,[3],5 (1.0) n (%)
same,PGA Change from Baseline: Improved by 4,[3],1 (0.2) n (%)
same,PGA Change from Baseline: No Change,[3],211 (43.0) n (%)
same,PGA Change from Baseline: Worsened by 1,[3],95 (19.3) n (%)
same,PGA Change from Baseline: Worsened by 2,[3],34 (6.9) n (%)
same,PGA Change from Baseline: Worsened by 3,[3],4 (0.8) n (%)
same,PGA Change from Baseline: Worsened by 4,[3],0 (0.0) n (%)
same,PGA 0 - Clear,[4],42 (16.7) n (%)
same,PGA 1 - Almost Clear,[4],69 (27.4) n (%)
same,PGA 2 - Mild,[4],82 (32.5) n (%)
same,PGA 3 - Moderate,[4],55 (21.8) n (%)
same,PGA 4 - Severe,[4],4 (1.6) n (%)
same,PGA Change from Baseline: Improved by 1,[4],84 (33.5) n (%)
same,PGA Change from Baseline: Improved by 2,[4],57 (22.7) n (%)
same,PGA Change from Baseline: Improved by 3,[4],22 (8.8) n (%)
same,PGA Change from Baseline: Improved by 4,[4],1 (0.4) n (%)
same,PGA Change from Baseline: No Change,[4],71 (28.3) n (%)
same,PGA Change from Baseline: Worsened by 1,[4],13 (5.2) n (%)
same,PGA Change from Baseline: Worsened by 2,[4],3 (1.2) n (%)
same,PGA Change from Baseline: Worsened by 3,[4],0 (0.0) n (%)
same,PGA Change from Baseline: Worsened by 4,[4],0 (0.0) n (%)
same,PGA 0 - Clear,"Week 40 OC, Overall",68 (19.5) n (%)
same,PGA 1 - Almost Clear,"Week 40 OC, Overall",107 (30.7) n (%)
same,PGA 2 - Mild,"Week 40 OC, Overall",116 (33.2) n (%)
same,PGA 3 - Moderate,"Week 40 OC, Overall",57 (16.3) n (%)
same,PGA 4 - Severe,"Week 40 OC, Overall",1 (0.3) n (%)
same,PGA Change from Baseline: Improved by 1,"Week 40 OC, Overall",99 (28.4) n (%)
same,PGA Change from Baseline: Improved by 2,"Week 40 OC, Overall",46 (13.2) n (%)
same,PGA Change from Baseline: Improved by 3,"Week 40 OC, Overall",19 (5.4) n (%)
same,PGA Change from Baseline: Improved by 4,"Week 40 OC, Overall",1 (0.3) n (%)
same,PGA Change from Baseline: No Change,"Week 40 OC, Overall",105 (30.1) n (%)
same,PGA Change from Baseline: Worsened by 1,"Week 40 OC, Overall",55 (15.8) n (%)
same,PGA Change from Baseline: Worsened by 2,"Week 40 OC, Overall",21 (6.0) n (%)
same,PGA Change from Baseline: Worsened by 3,"Week 40 OC, Overall",3 (0.9) n (%)
same,PGA Change from Baseline: Worsened by 4,"Week 40 OC, Overall",0 (0.0) n (%)
same,PGA 0 - Clear,[5],41 (17.4) n (%)
same,PGA 1 - Almost Clear,[5],71 (30.1) n (%)
same,PGA 2 - Mild,[5],81 (34.3) n (%)
same,PGA 3 - Moderate,[5],42 (17.8) n (%)
same,PGA 4 - Severe,[5],1 (0.4) n (%)
same,PGA Change from Baseline: Improved by 1,[5],58 (24.6) n (%)
same,PGA Change from Baseline: Improved by 2,[5],19 (8.1) n (%)
same,PGA Change from Baseline: Improved by 3,[5],2 (0.8) n (%)
same,PGA Change from Baseline: Improved by 4,[5],0 (0.0) n (%)
same,PGA Change from Baseline: No Change,[5],86 (36.4) n (%)
same,PGA Change from Baseline: Worsened by 1,[5],48 (20.3) n (%)
same,PGA Change from Baseline: Worsened by 2,[5],20 (8.5) n (%)
same,PGA Change from Baseline: Worsened by 3,[5],3 (1.3) n (%)
same,PGA Change from Baseline: Worsened by 4,[5],0 (0.0) n (%)
same,PGA 0 - Clear,"Week 40 OC, Vehicle (Pivotal)",27 (23.9) n (%)
same,PGA 1 - Almost Clear,"Week 40 OC, Vehicle (Pivotal)",36 (31.9) n (%)
